Tested on: moderate-to-severe chronic spontaneous urticaria (CSU)
Experiment: Phase 2 CSU study: urticaria control test (UCT)
Type: in vivo, human
Design: key to UCT, Mean / UCT, Median / UCT change from baseline, Mean / UCT change from baseline, Median: UCT total = sum of 4 item scores; low = low disease control
Source text: The study comprises a 12 week, randomized, double-blind, placebo-controlled, multi-center, dose-ranging efficacy and safety phase, followed by a 40 week open label extension (OLE) phase (see FIG. 1). The study consists of three phases and an optional OLE phase. […] To this end, the UCT was proposed as a tertiary endpoint in this study. […] The dermatology life quality index (DLQI) was proposed as a tertiary endpoint in this study. […] Low scores indicate high disease activity and low disease control. The UCT total score is calculated by adding all 4 individual item scores. […] The recall period is the previous 4 weeks. Patients were to complete the UCT questionnaire during their site visit.

[1] = 400 mg QPM, Week 8, ITT population
[2] = 400 mg QPM, Week 8, omalizumab-naïve population
[3] = 400 mg QPM, Week 8, prior omalizumab use incl. incomplete responders
[4] = 400 mg QPM, Week 12, ITT population
[5] = 400 mg QPM, Week 12, omalizumab-naïve population
[6] = 400 mg QPM, Week 12, prior omalizumab use incl. incomplete responders
[7] = 400 mg TID, End of study, omalizumab-naïve population
[8] = 400 mg TID, End of study, prior omalizumab use incl. incomplete responders
[9] = 400 mg TID, Week 4, ITT population
[10] = 400 mg TID, Week 4, omalizumab-naïve population
[11] = 400 mg TID, Week 4, prior omalizumab use incl. incomplete responders
[12] = 400 mg TID, Week 8, ITT population
[13] = 400 mg TID, Week 8, omalizumab-naïve population
[14] = 400 mg TID, Week 8, prior omalizumab use incl. incomplete responders
[15] = 400 mg TID, Week 12, ITT population
[16] = 400 mg TID, Week 12, omalizumab-naïve population
[17] = 400 mg TID, Week 12, prior omalizumab use incl. incomplete responders

For CC(C)(C=C(C#N)C(=O)N1CCC[C@@H](n2nc(-c3ccc(Oc4ccccc4)cc3F)c3c(N)ncnc32)C1)N1CCN(C2COC2)CC1 [rilzabrutinib, (R)-2-[3-[4-amino-3-(2-fluoro-4-phenoxy-phenyl)pyrazolo[3,4-d]pyrimidin-1-yl]piperidine-1-carbonyl]-4-methyl-4-[4-(oxetan-3-yl)piperazin-1-yl]pent-2-enenitrile], the “UCT % Change difference for rilzabrutinib vs. placebo LS Mean (95% CI)” value (shortened to “UCT % Change difference … (95% CI)”) [1] was −37.84 (−167.44, 91.76) %, the “UCT % Change from baseline LS Mean (SE)” value [1] was 126.71 (44.63) % and the “UCT Change difference for rilzabrutinib vs. placebo LS Mean (95% CI)” value (“UCT Change difference … (95% CI)” for short) [1] was −1.21 (−3.16, 0.74). For the same compound, the “UCT Change from baseline LS Mean (SE)” value [1] was 3.16 (0.71), the “UCT Post-baseline Mean (SD)” value [1] was 6.97 (3.84) and the “UCT % Change difference … (95% CI)” value [2] was −48.49 (−177.78, 80.81) %. The “UCT % Change from baseline LS Mean (SE)” value [2] was 121.09 (44.66) %, the “UCT Change difference … (95% CI)” value [2] was −1.49 (−3.43, 0.45) and the “UCT Change from baseline LS Mean (SE)” value [2] was 2.98 (0.71). The “UCT Post-baseline Mean (SD)” value [2] was 6.84 (3.84), the “UCT change from baseline, Mean” value [2] was 3.09 and the “UCT change from baseline, Median” value [2] was 2.00. The “UCT percent change from baseline, Mean” value [2] was 138.85%, the “UCT, Median” value [2] was 7.00 and the “UCT change from baseline, Mean” value [3] was 6.00. The “UCT change from baseline, Median” value [3] was 6.00, the “UCT percent change from baseline, Mean” value [3] was 120.00% and the “UCT percent change from baseline, Median” value [3] was 120.00%. The “UCT % Change difference … (95% CI)” value [4] was −100.02 (−238.68, 38.64) %, the “UCT % Change from baseline LS Mean (SE)” value [4] was 99.76 (47.53) % and the “UCT Change difference … (95% CI)” value [4] was −1.82 (−3.87, 0.23). For the same compound, the “UCT Change from baseline LS Mean (SE)” value [4] was 2.92 (0.76), the “UCT Post-baseline Mean (SD)” value [4] was 6.97 (3.84) and the “UCT % Change difference … (95% CI)” value [5] was −105.95 (−247.17, 35.27) %. The “UCT Change difference … (95% CI)” value [5] was −1.96 (−3.99, 0.08), the “UCT Change from baseline LS Mean (SE)” value [5] was 2.77 (0.75) and the “UCT Post-baseline Mean (SD)” value [5] was 6.88 (3.86). The “UCT change from baseline, Mean” value [5] was 3.13, the “UCT change from baseline, Median” value [5] was 2.00 and the “UCT percent change from baseline, Mean” value [5] was 121.74%. The “UCT percent change from baseline, Median” value [5] was 92.86%, the “UCT, Median” value [5] was 7.00 and the “UCT change from baseline, Mean” value [6] was 5.00. For the same compound, the “UCT change from baseline, Median” value [6] was 5.00, the “UCT percent change from baseline, Mean” value [6] was 100.00% and the “UCT percent change from baseline, Median” value [6] was 100.00%. The UCT over baseline (400 mg TID) was “mild increase”, the “UCT change from baseline, Mean” value [7] was 4.00 and the “UCT change from baseline, Median” value [7] was 4.00. The “UCT percent change from baseline, Mean” value [7] was 41.03%, the “UCT percent change from baseline, Median” value [7] was 41.03% and the “UCT change from baseline, Mean” value [8] was 11.60. For the same compound, the “UCT change from baseline, Median” value [8] was 13.00, the “UCT percent change from baseline, Mean” value [8] was 7.80% and the “UCT percent change from baseline, Median” value [8] was 9.00%. The “UCT, Mean” value [8] was 4.83, the “UCT, Median” value [8] was 4.00 and the “UCT % Change difference … (95% CI)” value [9] was 122.56 (−10.01, 255.13) %. For the same compound, the “UCT % Change from baseline LS Mean (SE)” value [9] was 262.11 (48.72) %, the “UCT Change difference … (95% CI)” value [9] was 2.34 (0.46, 4.22) and the “UCT Change from baseline LS Mean (SE)” value [9] was 5.68 (0.68). The “UCT Post-baseline Mean (SD)” value [9] was 10.03 (4.20), the “UCT % Change difference … (95% CI)” value [10] was 124.43 (−9.74, 258.61) % and the “UCT % Change from baseline LS Mean (SE)” value [10] was 267.24 (49.68) %. The “UCT Change difference … (95% CI)” value [10] was 2.23 (0.33, 4.13), the “UCT Change from baseline LS Mean (SE)” value [10] was 5.47 (0.70) and the “UCT Post-baseline Mean (SD)” value [10] was 9.77 (4.17). The “UCT change from baseline, Mean” value [10] was 5.63, the “UCT change from baseline, Median” value [10] was 6.50 and the “UCT percent change from baseline, Mean” value [10] was 254.30%. For the same compound, the “UCT percent change from baseline, Median” value [10] was 100.00%, the “UCT change from baseline, Mean” value [11] was 7.80 and the “UCT change from baseline, Median” value [11] was 9.00. The “UCT percent change from baseline, Mean” value [11] was 146.88%, the “UCT percent change from baseline, Median” value [11] was 143.75% and the “UCT, Median” value [11] was 13.00. The “UCT % Change difference … (95% CI)” value [12] was 108.30 (−18.30, 234.90) %, the “UCT % Change from baseline LS Mean (SE)” value [12] was 272.85 (43.60) % and the “UCT Change difference … (95% CI)” value [12] was 1.43 (−0.50, 3.37). The “UCT Change from baseline LS Mean (SE)” value [12] was 5.80 (0.69), the “UCT Post-baseline Mean (SD)” value [12] was 10.00 (3.85) and the “UCT % Change difference … (95% CI)” value [13] was 102.55 (−31.38, 236.49) %. For the same compound, the “UCT % Change from baseline LS Mean (SE)” value [13] was 272.13 (49.40) %, the “UCT Change difference … (95% CI)” value [13] was 1.19 (−0.75, 3.12) and the “UCT Change from baseline LS Mean (SE)” value [13] was 5.66 (0.71). For the same compound, the “UCT Post-baseline Mean (SD)” value [13] was 9.80 (3.86), the “UCT change from baseline, Median” value [13] was 6.50 and the “UCT percent change from baseline, Mean” value [13] was 277.48%. The “UCT percent change from baseline, Median” value [13] was 120.83%, the “UCT, Median” value [13] was 9.50 and the “UCT change from baseline, Median” value [14] was 5.00. The “UCT percent change from baseline, Mean” value [14] was 107.33%, the “UCT percent change from baseline, Median” value [14] was 25.00% and the “UCT % Change difference … (95% CI)” value [15] was 122.43 (−16.89, 261.74) %. For the same compound, the “UCT % Change from baseline LS Mean (SE)” value [15] was 322.21 (47.00) %, the “UCT Change difference … (95% CI)” value [15] was 1.80 (−0.20, 3.79) and the “UCT Change from baseline LS Mean (SE)” value [15] was 6.53 (0.70). For the same compound, the “UCT Post-baseline Mean (SD)” value [15] was 10.69 (4.25), the “UCT % Change difference … (95% CI)” value [16] was 131.76 (−18.16, 281.68) % and the “UCT % Change from baseline LS Mean (SE)” value [16] was 329.00 (51.79) %. For the same compound, the “UCT Change difference … (95% CI)” value [16] was 1.58 (−0.47, 3.63), the “UCT Change from baseline LS Mean (SE)” value [16] was 6.31 (0.76) and the “UCT change from baseline, Median” value [16] was 6.00. For the same compound, the “UCT percent change from baseline, Mean” value [16] was 311.71%, the “UCT percent change from baseline, Median” value [16] was 102.86% and the “UCT change from baseline, Mean” value [17] was 8.00. For the same compound, the “UCT change from baseline, Median” value [17] was 9.00, the “UCT percent change from baseline, Mean” value [17] was 156.25% and the “UCT percent change from baseline, Median” value [17] was 162.50%. The “patients achieving a UCT≥12” value (400 mg TID, over time up to Week 12) was greater than 20%.

From US20260256792A1, “TREATMENT OF CHRONIC SPONTANEOUS URTICARIA BY ADMINISTERING (R)-2-[3-[4-AMINO-3-(2-FLUORO-4-PHENOXY-PHENYL)PYRAZOLO[3,4-D]PYRIMIDIN-1-YL]PIPERIDINE-1-CARBONYL]-4-METHYL-4-[4-(OXETAN-3-YL)PIPERAZIN-1-YL]PENT-2-ENENITRILE” (priority 2023, published 2026)
